Assays:
[1] = Plasma ALT, AST and ALP levels in STZ/high fat diet NASH mice; assay type: in vivo
Excerpt: (§1) In this example, NASH was induced in 48 male mice by a single subcutaneous injection of streptozotocin (STZ, Sigma-Aldrich, USA) solution 2 days after birth and feeding with high fat diet (HFD, 57 kcal % fat, cat#HFD32, CLEA Japan, Japan) after 4 weeks of age. The mice were randomized into 6 groups of 8 mice at 7 weeks of age according to Table 1 below. Eight male littermates, fed with normal diet without STZ treatment, were used for the Normal group.
(§2) Group 1 (normal) consisted of eight normal mice fed with a normal diet ad libitum without any treatment. Group 2 (vehicle) consisted of eight NASH mice that were subcutaneously administered vehicle at a volume of 5 mL/kg once daily from 7 to 10 weeks of age. Group 3 (TXA127-30 μg) consisted of eight NASH mice that were subcutaneously administered vehicle supplemented with TXA127 at a dose of 30 μg/5 mL/kg once daily from 7 to 10 weeks of age. Group 4 (TXA127-100 μg) consisted of eight NASH mice that were subcutaneously administered vehicle supplemented with TXA127 at a dose of 100 μg/5 mL/kg once daily from 7 to 10 weeks of age. Group 5 (TXA127-300 μg) consisted of eight NASH mice that were subcutaneously administered vehicle supplemented with TXA127 at a dose of 300 μg/5 mL/kg once daily from 7 to 10 weeks of age. Group 6 (TXA127-1,000 μg) consisted of eight NASH mice that were subcutaneously administered vehicle supplemented with TXA127 at a dose of 1,000 μg/5 mL/kg once daily from 7 to 10 weeks of age. Group 7 consisted of eight NASH mice that were orally administered pure water supplemented with Telmisartan at a dose of 15 mg/10 mL/kg once daily from 8 to 10 weeks of age.
(§3) Vehicle (saline) and TXA127 were administered via subcutaneous administration to the mice in a volume of 5 mL/kg body weight. Telmisartan was administered by oral route to the mice in a volume of 10 mL/kg body weight. TXA127 was dissolved in saline, and Telmisartan (MICARDIS®) was purchased from Boehringer Ingelheim GmbH and was dissolved in pure water. TXA127 was administered once daily at the doses of 30, 100, 300 or 1000 μg/kg body weight. Telmisartan was administered once daily at the dose of 15 mg/kg body weight.
(§4) Non-fasting whole blood glucose levels were measured in whole blood samples using G Checker (Sanko Junyaku, Japan). For plasma biochemistry, blood was collected in polypropylene tubes with anticoagulant (Novo-Heparin, Mochida Pharmaceutical, Japan) and centrifuged at 1,000×g for 15 minutes at 4° C. The supernatant was collected and stored at −80° C. until use. The plasma levels of ALT, AST, and ALP were measured by FUJI DRI-CHEM 7000 (Fuji Film, Japan).

NASH mice [2] = experiment: Sirius red staining of liver sections, fibrosis area, in NASH mice; assay type: in vivo
Excerpt: as §1, §2, §3
For quantitative analysis of fibrosis areas, bright field images of
Sirius red-stained sections were captured using a digital camera (DFC280, Leica, Germany) around central veins at 200-fold magnification, and the positive areas in 5 fields/section were quantified using ImageJ software (National Institute of Health, USA).

TGF-β mRNA = experiment: Quantitative RT-PCR of liver, TGF-β mRNA; assay type: in vivo, mice
Description: (§5) The animals, groups, treatment conditions and time points are the same as for Example 3 above. Livers were harvested from the animals in Example 3 and subjected to the following analysis.
(§6) Total RNA was extracted from liver samples using RNAiso (Takara Bio, Japan) according to the manufacturer's instructions. One μg of RNA was reverse-transcribed using a reaction mixture containing 4.5 mM MgCl2 (Roche, Switzerland), 40 U RNase inhibitor (Toyobo, Japan), 0.5 mM dNTP (Promega, USA), 6.28 μM random hexamer (Promega), 5× first strand buffer (Promega), 6.6 mM dithiothreitol (Invitrogen, USA) and MMLV-RT (Invitrogen) in a final volume of 20 μL. The reaction was carried out for 1 hour at 37° C., followed by 5 minutes at 99° C. Real-time PCR was performed using real-time PCR DICE and SYBR premix Taq (Takara Bio). To calculate the relative mRNA expression level, the expression of each gene was normalized to that of reference gene 36B4 (gene symbol: Rp1p0). Statistical analyses were performed using Bonferroni Multiple Comparison Test on Prism Software 4. P values <0.05 were considered statistically significant. The expression level of Collagen Type I, collagen type 3, α-SMA, TGF-β, CCR2, and TIMP-1 mRNA were assessed.

Collagen Type 1 mRNA = experiment: Quantitative RT-PCR of liver, Collagen Type 1 mRNA; assay type: in vivo, mice
Description: as §5, §6

[3] = Non-fasting whole blood glucose in STZ/high fat diet NASH mice; assay type: in vivo
Excerpt: as §1, §2, §3, §4

TIMP-1 mRNA = experiment: Quantitative RT-PCR of liver, TIMP-1 mRNA; assay type: in vivo, mice
Description: as §5, §6

NASH mice [4] = experiment: Liver weight, NAS and inflammatory cell infiltration in NASH mice (summary statements); assay type: in vivo
Excerpt: as §1, §2
as §3, with “Telmisartan was administered once daily at the dose of 15 mg/kg body weight.” left out

α-SMA mRNA = experiment: Quantitative RT-PCR of liver, α-SMA mRNA; assay type: in vivo, mice
Description: as §5, §6

Collagen Type 3 mRNA = experiment: Quantitative RT-PCR of liver, Collagen Type 3 mRNA; assay type: in vivo, mice
Description: as §5, §6

NASH mice [5] = experiment: Liver hydroxyproline content in NASH mice; assay type: in vivo; details: normalized by total protein
Excerpt: as §1, §2, §3
To quantify liver hydroxyproline content, frozen livers (40-60 mg) were minced and defatted in acetone for 30 minutes at room temperature. After centrifugation, the pellets were air-dried and dissolved in 400 μL of 2N NaOH at 65° C. The liver lysates were autoclaved at 121° C. for 20 minutes. The samples were then acid-hydrolyzed with 400 μL of 6N HCl at 121° C. for 20 minutes, and neutralized with 400 μL of 10 mg/mL activated carbon in 4N NaOH. The neutralized samples were buffered with 2.2 M acetic acid/0.48 M citric acid buffer and centrifuged to obtain the supernatant. In order to construct a standard curve of hydroxyproline, serial dilutions of trans-4-hydroxy-L-proline standard (Sigma, USA) were prepared starting at 16 μg/mL. Five hundred μL of the supernatant and standard were added to 500 μL chloramine T in 10% n-propanol/acetate-citrate buffer and incubated for 25 minutes at room temperature. […] After samples were cooled on ice and centrifuged to collect the supernatant, the optical density of each supernatant and standard was measured at 560 nm and the concentration of liver hydroxyproline was calculated form the hydroxyproline standard curve. Protein concentrations of each supernatant were determined using a BCA protein assay kit (Thermo Scientific, USA). […]

CCR2 mRNA = experiment: Quantitative RT-PCR of liver, CCR2 mRNA; assay type: in vivo, mice
Description: as §5, §6

[6] = 15 mg/kg oral QD, 8-10 wks of age
[7] = relative to 36B4, Normal = 1.00, 15 mg/kg oral QD
[8] = 15 mg/kg oral QD, compared with the Vehicle group
[9] = 30 μg/kg SQ QD, 7-10 wks of age
[10] = 100 μg/kg SQ QD, 7-10 wks of age
[11] = 300 μg/kg SQ QD, 7-10 wks of age
[12] = 1000 μg/kg SQ QD, 7-10 wks of age
[13] = relative to 36B4, Normal = 1.00, 30 μg/kg SQ QD
[14] = relative to 36B4, Normal = 1.00, 100 μg/kg SQ QD
[15] = relative to 36B4, Normal = 1.00, 300 μg/kg SQ QD
[16] = relative to 36B4, Normal = 1.00, 1000 μg/kg SQ QD

CCCc1nc2c(C)cc(-c3nc4ccccc4n3C)cc2n1Cc1ccc(-c2ccccc2C(=O)O)cc1 [Telmisartan, reference compound]
plasma ALP levels [1, 6]: 605±130 U/L | plasma ALT levels [1, 6]: 41±10 U/L | plasma AST levels [1, 6]: 232±141 U/L | percentage of fibrosis area (Sirius red-positive area) (NASH mice [2]; [6]): 0.44±0.12% | TGF-β mRNA expression levels (TGF-β mRNA; [7]): 1.58±0.23 | Collagen Type 1 mRNA expression levels (Collagen Type 1 mRNA; [7]): 3.14±0.59 | non-fasting blood glucose levels in whole blood ([3]; 15 mg/kg oral QD, 8-10 wks of age, detection limit 900 mg/dL): 900 ± 0 mg/dL | TIMP-1 mRNA expression levels (TIMP-1 mRNA; [7]): 4.22±1.52 | NAS (NASH mice [4]; [8]): significantly decreased | liver weight (NASH mice [4]; [8]): significantly decreased | α-SMA mRNA expression levels (α-SMA mRNA; [7]): 2.07±0.87 | Collagen Type 3 mRNA expression levels (Collagen Type 3 mRNA; [7]): 2.09±0.50 | liver hydroxyproline content (NASH mice [5]; [6]): 1.46 ± 0.69 µg/mg | CCR2 mRNA expression levels (CCR2 mRNA; [7]): 1.94±0.37

TXA127: test substance dissolved in saline, given subcutaneously; not defined in the text, apparently the angiotensin-(1-7) peptide (DRVYIHP; Angiotensin 1-7; UniProt P01019 25-31, looked up)
plasma ALP levels [1, 9]: 428±61 U/L | plasma ALT levels [1, 9]: 46±15 U/L | plasma AST levels [1, 9]: 160±94 U/L | plasma ALP levels [1, 10]: 358±75 U/L | plasma ALT levels [1, 10]: 89±56 U/L | plasma AST levels [1, 10]: 352±174 U/L | plasma ALP levels [1, 11]: 472±100 U/L | plasma ALT levels [1, 11]: 43±17 U/L | plasma AST levels [1, 11]: 149±50 U/L | plasma ALP levels [1, 12]: 397±96 U/L | plasma ALT levels [1, 12]: 41±10 U/L | plasma AST levels [1, 12]: 142±32 U/L | percentage of fibrosis area (Sirius red-positive area) (NASH mice [2]; [9]): 0.88±0.33% | percentage of fibrosis area (Sirius red-positive area) (NASH mice [2]; [10]): 0.55±0.29% | percentage of fibrosis area (Sirius red-positive area) (NASH mice [2]; [11]): 0.54±0.18% | percentage of fibrosis area (Sirius red-positive area) (NASH mice [2]; [12]): 0.51±0.09% | TGF-β mRNA expression levels (TGF-β mRNA; [13]): 2.35±0.44 | TGF-β mRNA expression levels (TGF-β mRNA; [14]): 1.93±0.44 | TGF-β mRNA expression levels (TGF-β mRNA; [15]): 1.69±0.49 | TGF-β mRNA expression levels (TGF-β mRNA; [16]): 1.70±0.35 | Collagen Type 1 mRNA expression levels (Collagen Type 1 mRNA; [13]): 4.48±0.91 | Collagen Type 1 mRNA expression levels (Collagen Type 1 mRNA; [14]): 3.37±1.58 | Collagen Type 1 mRNA expression levels (Collagen Type 1 mRNA; [15]): 3.06±1.12 | Collagen Type 1 mRNA expression levels (Collagen Type 1 mRNA; [16]): 2.77±0.77 | non-fasting blood glucose levels in whole blood [3, 9]: 675 ± 103 mg/dL | non-fasting blood glucose levels in whole blood [3, 10]: 590 ± 131 mg/dL | non-fasting blood glucose levels in whole blood [3, 11]: 639 ± 76 mg/dL | non-fasting blood glucose levels in whole blood [3, 12]: 632 ± 92 mg/dL | TIMP-1 mRNA expression levels (TIMP-1 mRNA; [13]): 6.74±1.93 | TIMP-1 mRNA expression levels (TIMP-1 mRNA; [14]): 9.80±8.93 | TIMP-1 mRNA expression levels (TIMP-1 mRNA; [15]): 7.54±3.05 | TIMP-1 mRNA expression levels (TIMP-1 mRNA; [16]): 8.54±6.41 | inflammatory cell infiltration (NASH mice [4]; all doses (30, 100, 300, 1000 μg/kg SQ QD)): decreased inflammatory cell infiltration | α-SMA mRNA expression levels (α-SMA mRNA; [13]): 2.88±1.08 | α-SMA mRNA expression levels (α-SMA mRNA; [14]): 2.65±2.46 | α-SMA mRNA expression levels (α-SMA mRNA; [15]): 2.49±0.98 | α-SMA mRNA expression levels (α-SMA mRNA; [16]): 1.92±0.67 | Collagen Type 3 mRNA expression levels (Collagen Type 3 mRNA; [13]): 3.23±0.54 | Collagen Type 3 mRNA expression levels (Collagen Type 3 mRNA; [14]): 2.82±1.50 | Collagen Type 3 mRNA expression levels (Collagen Type 3 mRNA; [15]): 2.81±0.89 | Collagen Type 3 mRNA expression levels (Collagen Type 3 mRNA; [16]): 2.24±0.68 | liver hydroxyproline content (NASH mice [5]; [9]): 1.22 ± 0.29 µg/mg | liver hydroxyproline content (NASH mice [5]; [10]): 0.88 ± 0.17 µg/mg | liver hydroxyproline content (NASH mice [5]; [11]): 1.24 ± 0.51 µg/mg | liver hydroxyproline content (NASH mice [5]; [12]): 1.34 ± 0.69 µg/mg | CCR2 mRNA expression levels (CCR2 mRNA; [13]): 2.60±0.60 | CCR2 mRNA expression levels (CCR2 mRNA; [14]): 3.26±2.01 | CCR2 mRNA expression levels (CCR2 mRNA; [15]): 2.82±0.88 | CCR2 mRNA expression levels (CCR2 mRNA; [16]): 3.10±1.55

Reference: US20160074466A1, “ANGIOTENSINS FOR TREATMENT OF FIBROSIS” (UNIVERSITY OF SOUTHERN CALIFORNIA, priority 2011, published 2016)
